Results reported in patent publication US20240238235A1, “METHODS AND COMPOSITIONS FOR TREATING PULMONARY ALVEOLAR PROTEINOSIS RELATED TO MARS MUTATIONS” (INSTITUT NATIONAL DE LA SANTÉ ET DE LA RECHERCHE MÉDICALE, priority 2021, published 2024).
Read-outs that look alike come from different tables or passages of the source.

What was measured:
[1] = test system: patients presenting pulmonary alveolar proteinosis due to the double mutation Ala393Thr/Ser567Leu in MARS
Source text: (§1) The MetPAP study was registered at clinicaltrials.gov (NCT03887169). […] The secondary objectives were to determine the efficacy of such treatment.

[2] = Experimental: The level of methioninemia in a healthy subject should be measured on an empty stomach and should be less than 45 μM. Typically, in the subject affected by MARS mutations, the level of methioninemia to reach efficacy should be in the range of 45-500 μM (>45 μM at residual dosage and <500 μM at peak dosage 1 hour after the dose has been taken). The level of methioninemia is measured with the following methods. […] For accurate quantification, stable isotope internal standards of the same structure for each metabolite (Eurisotop, Saint Aubin, France) are added to samples before protein precipitation. Internal standards are labeled on all carbons and nitrogen(s) with following exceptions: glutamine 2,3,3,4,4-D5, asparagine ^13C4, tryptophan Indole-D5, citrulline ^13CD4 and homocysteine 3,3,3′,3′,4,4,4′,4′-D8. Samples are first derivatized using the AccQ Tag™ Ultra (Waters Corporation, Milford, MA, USA) according to manufacturer recommendations. Amino acid separation is performed with an Acquity™ UPLC system using a CORTECS™ UPLC C18 column (1.6 μm, 2.1×150 mm) coupled to microTQS™ tandem mass spectrometer (Waters Corporation, Milford, MA, USA). The run time for quantification of all amino acids is 12 min.
as §1
The frequency of medication was based on the known half-life of the moleculel and the peak was determined by performing kinetic measurements on the patients during the first day of supplementation.

peripheral monocytes = settings: control = 100%
Experimental: Peripheral monocyte and phagocyte functions were assessed by quantifying ROS production. Whole blood collected from lithium heparinized tubes (500 μl) was incubated for 15 min at 37° C. with dihydrorhodamine 123[…] (Sigma-Aldrich). Samples were then treated for 1 h at 37° C. with GM-CSF (10 ng/ml; R&D Systems), followed by stimulation for 5 min with fMLF (10^-5M; Sigma-Aldrich). The reaction was stopped by adding 1 ml ice-cold lysis solution (BD Biosciences) and incubating for 5 min on ice. Samples were then washed with PBS (Sigma-Aldrich) and the pellets resuspended in 300 μl FacsFlow solution (BD Biosciences). Samples were analyzed by flow cytometry on a FACSCanto II (BD Biosciences). Phagocytes (neutrophils and monocytes) were selected on the FSC-SSC dot plot. Events (50,000) were recorded at a constant PMT voltage. Results are expressed as the index of stimulation (MIF DHE GM-CSF+fMLP/DHE GM-CSF alone).

[3] = test system: pulmonary alveolar proteinosis related to MARS mutations; settings: P1, 3 and 4
Source text: We compared the course of treated patients to that of patients reported by Enaud et al. 2 as well as seven patients diagnosed since this publication. Data collection and analysis for these patients were approved by the Institutional Review Board of the French Respiratory Society (CEPRO2013-019) and the CPP Île de France II (CPP2013-12-03 SC).
Several parameters were compared between treated patients and HC. We computed the difference between the values for each continuous variable at inclusion and at last follow-up for each treated patient, as well as between diagnosis and six months to one year from diagnosis for the HC. Differences were compared between groups using Mann-Whitney tests. For each categorical variable (i.e., weaning from oxygen and enteral nutrition), we compared the proportion of patients who were weaned from such support at the second assessment between groups using Fisher's exact test. A p-value<0.05 was considered statistically significant.

[4] = test system: pulmonary alveolar proteinosis related to MARS mutations
Source text: Eight patients started the treatment from the age of 11 to 24 years old. […] In the 7 seven remaining patients, treatment was started less than one year ago and will be assessed in the next months.

yeast = settings: methionine supplementation in the culture medium; cited from earlier work
[5] = test system: patients with MAT I/III deficiency; settings: large series of patients with MAT I/III deficiency; cited from earlier work
[6] = test system: subjects receiving a loading dose of methionine; settings: cited from earlier work

CSCC[C@H](N)C(=O)O [methionine, L-methionine]
elevated transaminases (multiple of normal value) ([1]; P3, D21, judged not attributable to a toxic effect of methionine): > 3 N
Tolerance of methionine supplementation ([1]; during the protocol and after): well tolerated
methioninemia at T0 (residual) ([2]; P3, D21 of treatment): 42 µM
time of peak plasma methionine after taking the medication ([2]; kinetic study in the patients): 1 h
residual and peak plasma methionine values over 24-h periods, days and months ([2]; treatment every 6 h): reproducible residual and peak values
stimulation index relative to control (GM-CSF priming of ROS production by peripheral monocytes) (peripheral monocytes; P1, after three months of treatment (M3)): 109%
stimulation index relative to control (GM-CSF priming of ROS production by peripheral monocytes) (peripheral monocytes; P3, after three months of treatment (M3)): 73%
change M0 to M6-M12 of blood neutrophils, CRP, albumin and GGT versus HC ([3]; p=0.011, 0.039, 0.006, 0.038): greater improvement
patients weaned off oxygen at the second assessment ([3]; vs 1/15 HC, p=0.056): 2/3
patients weaned off enteral nutrition at the second assessment ([3]; vs none of 18 HC, p=0.014): 2/3
clinical outcome ([4]; 1 patient, treatment started 2 years ago): improve clinical respiratory status (regression of dry cough and exercise dyspnoea), to improve lung function (gain in forced vital capacity and diffuse capacity of carbon monoxide), and to improve chest CT scan (regression of ground glass opacities, stabilization of the fibrosis)
clinical outcome ([4]; 2 patients treated between 1 and 2 years of age): stop whole lung lavages, to “clean” the chest CT scan from the alveolar consolidations and stop the progression of fibrotic lesions, to catch-up on weight and to normalize liver blood tests and inflammatory markers
clinical outcome ([4]; 4 additional patients treated from diagnosis (3 to 6 months)): stop whole lung lavages or even to avoid it, to normalize the chest CT scan after 3 months of treatment, to normalize the liver blood tests and inflammatory markers, to catch-up on weight, and to wean off the oxygen and nutritional support initially required
growth and enzyme activity in yeast impaired by Ala393Thr/Ser567Leu mutations (yeast): restored
mean plasma methionine values at which CNS abnormalities were observed [5]: > 800 µM
adverse events (arterial blood pressure change, nausea and vomiting, dizziness, polyuria) [6]: mild and always transient
